# Assay results as given in patent publication US20190054093A1, “TREATMENT OF SARCOPENIA WITH ECDYSTEROIDS” (priority 2014, published 2019).
# What was measured:
# [1] = test system: Caspase-3 expression in C2C12 myotubes; experiment: Caspase 3 expression in C2C12 myotubes (quantitative RT-PCR, Example 4); format: cell-based, mouse; conditions: 24 hours; extracts and turkesterone 0.002, 0.02 and 2 ppm, 20HE 0.001, 0.01 and 1 ppm
# Method: Experiments similar to those in example 1 have been carried out with two other plant-derived, ecdysteroid-rich extracts. […] Cells between passages 3 and 10 were seeded at a density of 10,000 cells per cm^2. Cells were grown for 48 h until they reached 80-90% confluence. […] Cells were maintained at 37° C. in a humidified 5% CO2 incubator and medium was changed every other day.
# For RNA and protein extraction C2C12 myotubes were incubated with 0.002, 0.02 and 2 ppm of Rhaponticum carthamoides extract (RCE) and Cyanotis arachnoidea extract (CAE) or 0.001, 0.01 and 1 ppm of 20-hydroxyecdysone or 0.002, 0.02 and 2 ppm of Turkesterone for 24 hours. These two latter served as positive controls. RNA and protein were extracted using All Prep RNA/Protein Kit (Qiagen, Spain). RNA was stored at −80° C. and protein at −20° C. until further use. Total RNA was quantified using a fluorometric method with Quant-iT kit (Invitrogen, Spain). The cDNA was reverse-transcribed from the RNA extract using RT^2First Stand cDNA kit (Qiagen, Spain). Quantitative real-time RT-PCR for Caspase-3 and Myostatin were carried out using a MX3005P Q-PCR System (Agilent Technologies) and SYBR-Green/ROX detection. The housekeeping gene used was Actb and Mouse XpressRef Universal total RNA (Qiagen, Spain) as a positive control. […] The fold change in gene expression was calculated with ΔΔCt Method.
# C2C12 myotubes [2] = experiment: Protein synthesis by radio-labeled leucine incorporation in C2C12 myotubes (Example 3); format: cell-based, mouse
# [3] = rats fed 5 mg/kg BW for 7 days; 20HE derived from Rhaponticum carthamoides; cited from earlier work
# C2C12 myotubes [4] = format: cell-based, mouse; conditions: dose response experiment; 16 h
# Method: After cells reached 80-90% confluence (72 hours post-seeding) the media was replaced with differentiation media (DM): DMEM containing 2% horse serum (PAA; GE HealthCare), 10 mM Hepes (Lonza), 6 mM glutamine, 100 U/mL penicilin and 100 μgr/mL streptomycin (Biochrom). Media was replaced every 2 days, and after 10 days the myoblast has fused into multinucleated myotubes showing a fusion index of 70-80%.
# Before cell treatment, a 2000× Botanicals Extracts Stocks solutions were prepared in Biological grade DMSO (Sigma) or Ultrapure H2O (milliQ; Millipore), sonicated for 30 min and Filtered using a 0.22 μm pore size syringe filter membrane (Millipore). […]
# Protein synthesis was determined by measuring the incorporation of the tritiated L-Leucine (^3H-Leu) into C2C12 cellular proteins. […] Radioactivity was measured using a liquid scintillation counter (Tri-Carb, Perkin Elmer) and expressed as decay per minute (DPM). Total protein was quantified using Bradford method-based assay (microassay procedure) following the manufacturer's instructions (Biorad protein assay, BioRad Laboratories). Protein synthesis was calculated from the trichloroacetic acid-insoluble radioactivity incorporated per microgram of total protein. Results were expressed as relative increase in L-[3H]-Leucine compared with 100% of not treated Control. […]
# [5] = test system: Primary human skeletal muscle cells; experiment: Protein synthesis by radio-labeled leucine incorporation in human skeletal myotubes (Example 3); conditions: 100 nM, 24 h of treatment
# Method: Primary human skeletal muscle cells (a gift from Dr. William Cefalu of the Pennington Biomedical Research Center, Baton Rouge, La.) were seeded at a density of 10^5 cells/cm2 onto 24-well tissue culture plates. The cells were grown in DMEM supplemented with 10% FBS and a SingleQuot Kit (Lonza, Portsmouth, N.H.) containing epidermal growth factor, insulin, bovine serum albumin (BSA), fetuin, dexamethasone, and gentamicin/amphotericin-B. Cells were grown for 96 h in 5% CO2 at 37° C. until they reached 80% confluency, and the medium was replaced with differentiation medium (DMEM with 2% horse serum). After 18 days, myoblasts fused into multinucleated myotubes. […] Additionally, extracts of spinach or Ajuga turkestanica were also added. Radio-labeled leucine was used to assess any changes in protein synthesis. Decays per minute (DPM) were measured in a liquid scintillation counter (LS 6500, Beckman Coulter). Total protein was quantified using the bicinchoninic acid (BCA) method following the manufacturer's instructions (Pierce, Rockford, Ill.). The data were expressed as DPM per milligram of total protein.
# [6] = biological target: T1, recombinant rat androgen receptor (Rattus norvegicus, UniProt P15207); experiment: Androgen receptor binding assay, displacement of [3H]mibolerone; conditions: concentrations of 1 to 100 μM
# T1 sequence (P15207 1-902): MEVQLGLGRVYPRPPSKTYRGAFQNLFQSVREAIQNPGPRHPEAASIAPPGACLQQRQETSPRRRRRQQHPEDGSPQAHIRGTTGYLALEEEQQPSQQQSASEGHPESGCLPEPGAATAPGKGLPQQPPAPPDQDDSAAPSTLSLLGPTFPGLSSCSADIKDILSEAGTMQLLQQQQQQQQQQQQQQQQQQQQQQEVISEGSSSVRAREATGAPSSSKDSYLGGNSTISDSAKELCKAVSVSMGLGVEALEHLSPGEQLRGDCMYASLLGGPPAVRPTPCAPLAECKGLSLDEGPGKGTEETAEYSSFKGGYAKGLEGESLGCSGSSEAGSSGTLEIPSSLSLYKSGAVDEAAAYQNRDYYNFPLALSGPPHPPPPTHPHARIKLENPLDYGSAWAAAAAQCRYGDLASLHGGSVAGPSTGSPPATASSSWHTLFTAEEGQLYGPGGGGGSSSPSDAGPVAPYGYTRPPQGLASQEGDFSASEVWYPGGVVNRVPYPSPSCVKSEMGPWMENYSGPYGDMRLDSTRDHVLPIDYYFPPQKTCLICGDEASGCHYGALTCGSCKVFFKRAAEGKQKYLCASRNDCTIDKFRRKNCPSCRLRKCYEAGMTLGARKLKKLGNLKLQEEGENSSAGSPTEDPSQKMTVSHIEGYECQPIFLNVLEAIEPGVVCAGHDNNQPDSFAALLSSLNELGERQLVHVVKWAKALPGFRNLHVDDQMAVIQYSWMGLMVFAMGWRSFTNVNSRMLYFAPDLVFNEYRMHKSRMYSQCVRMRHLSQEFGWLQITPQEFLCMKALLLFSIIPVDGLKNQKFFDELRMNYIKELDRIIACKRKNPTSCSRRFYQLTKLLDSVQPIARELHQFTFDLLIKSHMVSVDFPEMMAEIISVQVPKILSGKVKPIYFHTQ
# Method: Briefly, recombinant rat androgen receptor was combined with [3H]mibolerone in a buffer of 50 mM Tris-HCl, pH 7.5, 0.8 M NaCl, 10% glycerol, 2 mM dithiothreitol, 1 mg/mlL BSA, and 2% ethanol. DPM of the incubation buffer was measured to quantify displacement of the labeled ligand.
compound,measurement,setting,value
"CC(C)(O)CC[C@@H](O)[C@](C)(O)[C@H]1CC[C@@]2(O)C3=CC(=O)[C@@H]4C[C@@H](O)[C@@H](O)C[C@]4(C)[C@H]3CC[C@]12C [Example 20HE, 20-hydroxyecdysone]",regulation of Caspase 3 expression,[1],significant effect in down regulation
same,"protein synthesis, % of control",C2C12 myotubes [2]; 40 nM,110 % of control
same,"protein synthesis, % of control (peak effect)",C2C12 myotubes [2]; 0.1 μM,120 % of control
same,"weight of liver, heart, kidneys and the tibialis anterior muscle",[3],increases
same,protein synthesis versus the control group,C2C12 myotubes [4],statistically significant increase
same,"protein synthesis, % of control",[5],120 % of control
same,inhibition of [3H]mibolerone binding,[6],did not show any significant inhibition
